This is an account of results in ChEMBL document CHEMBL2429821, “A Casein kinase 1/Checkpoint kinase 1 pyrazolo-pyridine protein kinase inhibitor as novel activator of the p53 pathway” (Bioorg Med Chem Lett, 2013).

Active and inactive are the calls of the source. The rule behind the calls is not given here.

The target of assay [1] is MAP kinase-activated protein kinase 2 (Homo sapiens) (UniProt P49137). Description: Inhibition of human MAPKAPK2 assessed as residual activity at 1 uM relative to control.
MAP kinase-activated protein kinase 2 (Homo sapiens), sequence (P49137 whole entry, looked up): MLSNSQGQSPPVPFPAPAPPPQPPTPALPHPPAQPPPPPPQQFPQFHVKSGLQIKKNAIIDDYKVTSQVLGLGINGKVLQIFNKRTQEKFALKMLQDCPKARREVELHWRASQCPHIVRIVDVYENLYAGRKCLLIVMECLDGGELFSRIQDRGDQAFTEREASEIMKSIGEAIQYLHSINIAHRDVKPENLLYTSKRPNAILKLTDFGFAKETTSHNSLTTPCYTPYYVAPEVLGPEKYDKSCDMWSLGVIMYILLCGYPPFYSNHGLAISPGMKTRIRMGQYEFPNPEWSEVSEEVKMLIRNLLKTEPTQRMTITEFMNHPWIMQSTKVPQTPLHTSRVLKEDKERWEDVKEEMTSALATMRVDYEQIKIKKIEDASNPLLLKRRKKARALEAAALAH
Assay [2] concerns the target T1, Casein kinase I/MDM2 (Homo sapiens) (UniProt Q00987+P48729). The experiment in a line: Inhibition of CK1-MDM2 complex in human A375 cells assessed as increase in p21 protein level at 5 to 40 uM compound transfected into cells using attractene carrier after 48 hrs by immunoblotting analysis. In kind it is cell-based. The following applies: A-375.
Assay [3] concerns A-375. The experiment in a line: Cytotoxicity against human A375 cells assessed as reduction in cell number at 40 uM after 24 hrs by light microscopic analysis relative to control. The class given is functional, cell-based.
The target of assay [4] is T1, Casein kinase I/MDM2 (Homo sapiens). Description: Inhibition of CK1-MDM2 complex in human A375 cells assessed as increase in p53 protein level at 5 to 40 uM compound transfected into cells using attractene carrier after 48 hrs by immunoblotting analysis. The settings on record: A-375. The class given is cell-based.
The target in assay [5] is MAP kinase-activated protein kinase 2 (Homo sapiens) (UniProt P49137). Description: Inhibition of human MAPKAPK2 assessed as residual activity at 10 uM relative to control.
Assay [6] has as its target Mitogen-activated protein kinase 1 (Homo sapiens) (UniProt P28482). Description: Inhibition of human MAPK2 assessed as residual activity at 1 uM relative to control.
Assay [7] addresses T1, Casein kinase I/MDM2 (Homo sapiens). Description: Inhibition of CK1-MDM2 complex in human A375 cells assessed as decrease in E2F1 protein level after 48 hrs by immunoblotting analysis. The following applies: A-375. In kind it is cell-based.
The target in assay [8] is T2, Serine/threonine-protein kinase Chk1 (Homo sapiens, UniProt O14757).
T2 sequence (O14757 whole entry): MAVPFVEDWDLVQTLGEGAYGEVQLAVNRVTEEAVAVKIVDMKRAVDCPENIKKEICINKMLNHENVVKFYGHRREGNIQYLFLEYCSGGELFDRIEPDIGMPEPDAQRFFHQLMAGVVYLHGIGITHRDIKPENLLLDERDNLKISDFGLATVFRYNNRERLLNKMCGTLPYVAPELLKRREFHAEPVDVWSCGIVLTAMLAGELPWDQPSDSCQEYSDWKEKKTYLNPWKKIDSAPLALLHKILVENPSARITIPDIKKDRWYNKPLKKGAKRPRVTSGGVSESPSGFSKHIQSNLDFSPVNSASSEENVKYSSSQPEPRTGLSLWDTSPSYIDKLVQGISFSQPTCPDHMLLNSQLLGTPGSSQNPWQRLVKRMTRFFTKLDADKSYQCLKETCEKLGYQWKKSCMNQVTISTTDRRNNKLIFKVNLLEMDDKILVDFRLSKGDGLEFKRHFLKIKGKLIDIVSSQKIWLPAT
The experiment in a line: Inhibition of human CHK1 in presence of 20 uM ATP.

The species named for the next assay is Homo sapiens. The experiment in a line: Inhibition of human VEGFR assessed as residual activity at 10 uM relative to control.
For assay [9], the system named is A-375. Description: Cell cycle arrest in human A375 cells assessed as accumulation at G2-M phase at 80 uM after 48 hrs by FACS flow cytometric analysis (reference value: 17.3%). In kind it is functional.
Assay [10] concerns the target T3, Mitogen-activated protein kinase 15 (Homo sapiens) (UniProt Q8TD08).
T3 sequence (whole entry): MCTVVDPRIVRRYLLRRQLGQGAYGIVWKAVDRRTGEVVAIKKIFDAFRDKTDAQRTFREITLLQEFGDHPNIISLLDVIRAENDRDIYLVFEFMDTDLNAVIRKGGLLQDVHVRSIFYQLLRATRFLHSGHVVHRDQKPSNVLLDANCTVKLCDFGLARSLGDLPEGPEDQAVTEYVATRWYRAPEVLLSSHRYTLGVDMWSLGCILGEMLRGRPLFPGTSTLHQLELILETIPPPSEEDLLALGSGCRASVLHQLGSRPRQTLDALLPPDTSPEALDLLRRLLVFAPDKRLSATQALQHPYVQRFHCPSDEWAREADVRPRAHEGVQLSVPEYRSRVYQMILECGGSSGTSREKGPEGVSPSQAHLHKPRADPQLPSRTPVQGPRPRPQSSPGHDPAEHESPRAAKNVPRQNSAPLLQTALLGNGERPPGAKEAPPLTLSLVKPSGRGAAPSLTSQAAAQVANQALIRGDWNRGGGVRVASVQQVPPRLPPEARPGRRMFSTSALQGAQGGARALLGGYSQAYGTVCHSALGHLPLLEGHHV
Description: Inhibition of human ERK8 assessed as residual activity at 1 uM relative to control.

In assay [11] the target is T3, Mitogen-activated protein kinase 15 (Homo sapiens). The experiment in a line: Inhibition of human ERK8 assessed as residual activity at 10 uM relative to control.
Assay [12] concerns the target Serine/threonine-protein kinase pim-2 (Homo sapiens) (UniProt Q9P1W9). Description: Inhibition of human PIM2 assessed as residual activity at 10 uM relative to control.
The target in assay [13] is T1, Casein kinase I/MDM2 (Homo sapiens). Description: Inhibition of CK1-MDM2 complex in human A375 cells assessed as decrease in MDM2 protein level at 0.2 to 40 uM after 24 hrs by immunoblotting analysis. The class given is cell-based. The settings on record: A-375.
Assay [14] has the same target. Description: Inhibition of CK1-MDM2 complex in human A375 cells assessed as increase in […] protein level at 0.2 to 40 uM after 24 hrs by immunoblotting analysis. The class given is cell-based. The following applies: A-375.
Assay [15] has the same target. Description: Inhibition of CK1-MDM2 complex in human A375 cells assessed as increase in p21 protein level at 0.2 to 5 uM after 48 hrs by immunoblotting analysis. In kind it is cell-based. The settings on record: A-375.
For assay [16], the target named is Serine/threonine-protein kinase Nek2 (Homo sapiens, UniProt P51955). The experiment in a line: Inhibition of human NEK2alpha in presence of 50 uM ATP.
Serine/threonine-protein kinase Nek2, sequence (P51955 whole entry): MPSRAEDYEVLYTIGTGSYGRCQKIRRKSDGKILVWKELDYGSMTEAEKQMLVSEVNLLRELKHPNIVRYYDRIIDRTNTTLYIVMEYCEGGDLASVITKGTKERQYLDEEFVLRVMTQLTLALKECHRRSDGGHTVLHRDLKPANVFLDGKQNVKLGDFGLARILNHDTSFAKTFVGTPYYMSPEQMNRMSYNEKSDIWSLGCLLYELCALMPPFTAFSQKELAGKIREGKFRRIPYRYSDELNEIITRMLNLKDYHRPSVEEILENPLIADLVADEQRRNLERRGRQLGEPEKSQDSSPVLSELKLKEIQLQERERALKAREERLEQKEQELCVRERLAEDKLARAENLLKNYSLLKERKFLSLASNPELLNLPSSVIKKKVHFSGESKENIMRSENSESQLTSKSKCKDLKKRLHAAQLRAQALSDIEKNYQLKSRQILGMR
Assay [17] relates to A-375. Description: Cytotoxicity against human A375 cells assessed as cell viability after 24 hrs by MTT assay. The settings on record: A-375, 24 h. In kind it is functional, cell-based.
Assay [18] concerns the target T1, Casein kinase I/MDM2 (Homo sapiens). The experiment in a line: Inhibition of CK1-MDM2 complex in human A375 cells assessed as decrease in […] protein level at 0.2 to 5 uM after 48 hrs by immunoblotting analysis. The settings on record: A-375. In kind it is cell-based.
The test system of assay [19] is A-375. The experiment in a line: Cell cycle arrest in human A375 cells assessed as accumulation at sub-G1 phase at 10 uM after 48 hrs by FACS flow cytometric analysis (reference value: 2.17%). In kind it is functional.
In assay [20] the test system is A-375. The experiment in a line: Cell cycle arrest in human A375 cells assessed as accumulation at G2-M phase at 1 uM after 48 hrs by FACS flow cytometric analysis (reference value: 17.3%). In kind it is functional.
Assay [21] concerns A-375. The experiment in a line: Cell cycle arrest in human A375 cells assessed as accumulation at G0-G1 phase at 40 uM after 48 hrs by FACS flow cytometric analysis (reference value: 55.4%). The class given is functional.
Assay [22] deals with A-375. Description: Cell cycle arrest in human A375 cells assessed as accumulation at S phase at 1 uM after 48 hrs by FACS flow cytometric analysis (reference value: 25.1%). In kind it is functional.
The test system of a further assay is HCT-116. Description: Cytotoxicity against human HCT116 cells expressing p53 assessed as cell viability at 1 to 32 uM after 24 hrs by MTT assay. The class given is functional, cell-based.
Assay [23] deals with A-375. Description: Cell cycle arrest in human A375 cells assessed as accumulation at G2-M phase at 40 uM after 48 hrs by FACS flow cytometric analysis (reference value: 17.3%). The class given is functional.
The test system of assay [24] is A-375. The experiment in a line: Cell cycle arrest in human A375 cells assessed as accumulation at G0-G1 phase at 1 uM after 48 hrs by FACS flow cytometric analysis (reference value: 55.4%). In kind it is functional.
Assay [25] relates to A-375. The experiment in a line: Cell cycle arrest in human A375 cells assessed as accumulation at G2-M phase at 10 uM after 48 hrs by FACS flow cytometric analysis (reference value: 17.3%). The class given is functional.

T1 sequence (P48729 whole entry, looked up): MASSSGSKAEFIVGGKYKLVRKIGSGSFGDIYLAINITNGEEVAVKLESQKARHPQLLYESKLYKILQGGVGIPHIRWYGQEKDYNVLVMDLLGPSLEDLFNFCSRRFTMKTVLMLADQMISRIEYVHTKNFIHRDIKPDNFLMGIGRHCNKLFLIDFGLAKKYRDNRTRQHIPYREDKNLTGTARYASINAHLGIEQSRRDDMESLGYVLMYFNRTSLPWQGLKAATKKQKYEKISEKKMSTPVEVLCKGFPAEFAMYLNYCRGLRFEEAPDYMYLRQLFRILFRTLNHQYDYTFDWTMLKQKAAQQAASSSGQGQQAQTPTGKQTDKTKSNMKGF
T1 sequence (Q00987 whole entry, looked up): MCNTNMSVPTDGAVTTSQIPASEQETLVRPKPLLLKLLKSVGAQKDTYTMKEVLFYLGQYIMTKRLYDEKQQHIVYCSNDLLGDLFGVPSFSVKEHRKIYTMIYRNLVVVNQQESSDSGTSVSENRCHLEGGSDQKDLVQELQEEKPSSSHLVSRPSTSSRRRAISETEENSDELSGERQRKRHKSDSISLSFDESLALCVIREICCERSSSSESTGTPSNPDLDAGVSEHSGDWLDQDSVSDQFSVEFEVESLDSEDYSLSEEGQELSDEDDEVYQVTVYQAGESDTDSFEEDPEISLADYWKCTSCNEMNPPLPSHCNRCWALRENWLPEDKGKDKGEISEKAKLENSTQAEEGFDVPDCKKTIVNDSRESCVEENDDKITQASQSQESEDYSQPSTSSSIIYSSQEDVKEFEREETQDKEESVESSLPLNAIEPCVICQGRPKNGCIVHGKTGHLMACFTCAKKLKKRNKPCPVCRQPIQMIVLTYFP
Mitogen-activated protein kinase 1 (Homo sapiens), sequence (P28482 whole entry): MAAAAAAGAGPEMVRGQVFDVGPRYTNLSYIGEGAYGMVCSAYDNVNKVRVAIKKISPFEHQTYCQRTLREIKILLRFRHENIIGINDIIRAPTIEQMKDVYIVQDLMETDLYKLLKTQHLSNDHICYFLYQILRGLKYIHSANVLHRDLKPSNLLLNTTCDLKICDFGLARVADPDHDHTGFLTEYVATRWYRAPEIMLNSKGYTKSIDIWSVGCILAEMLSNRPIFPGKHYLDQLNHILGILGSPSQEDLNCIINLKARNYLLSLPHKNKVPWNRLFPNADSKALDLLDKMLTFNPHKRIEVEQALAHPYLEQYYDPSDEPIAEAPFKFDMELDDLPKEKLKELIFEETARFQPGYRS
Serine/threonine-protein kinase pim-2 (Homo sapiens), sequence (Q9P1W9 whole entry, looked up): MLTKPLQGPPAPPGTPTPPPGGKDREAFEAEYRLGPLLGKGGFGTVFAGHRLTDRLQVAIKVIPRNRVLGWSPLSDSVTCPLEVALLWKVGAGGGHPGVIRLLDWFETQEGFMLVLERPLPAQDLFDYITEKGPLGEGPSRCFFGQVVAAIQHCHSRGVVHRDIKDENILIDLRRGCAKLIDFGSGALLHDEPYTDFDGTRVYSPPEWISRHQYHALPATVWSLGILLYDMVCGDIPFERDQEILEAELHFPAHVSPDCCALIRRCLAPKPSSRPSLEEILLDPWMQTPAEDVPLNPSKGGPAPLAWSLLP

Regarding `CC(=O)Nc1nccc(-c2c(-c3ccccc3)noc2C)n1`, the Activity was found to be 94.7% in assay [1]; 124% in assay [5]; 106% in assay [6]; 50.8% in the assay filed under Homo sapiens; 16.2% in the assay with A-375 [9]; 91.1% in assay [10]. The Activity in assay [11] was 89.5%; in [12], 103%. Besides, the inhibition entry in assay [2] and in assay [4] was “inactive” in each case. Moreover, in the assay with A-375 [3], the result was inactive. In assay [7], the inhibition entry was “Dose-dependent effect”. The half-inhibitory concentration (IC50) result in assay [8] was “Not Active”.

Regarding `CCCC(=O)Nc1n[nH]c2ncc(-c3cccnc3)cc12`, the inhibition entry in assay [13] and in assay [14] was “Active” each time.

As to `CC(=O)Nc1cccc(-c2cnc3[nH]nc(C)c3c2)c1`, the inhibition entry in assay [15] and in assay [18] was “Active” throughout. Besides, the half-inhibitory concentration (IC50) in [16] came to 2 µM; in the assay with A-375 [17], 8 µM; in assay [8] (read-out: IC50), 0.233 µM. For the same compound, the Activity in [1] came out at 63.8%; in [5], 96.4%; in [6] it was 91.7%; with A-375 [19], 34.3%; in the assay on A-375 [20], 17.8%; in the assay on A-375 [21] it was 16.9%. Also, the Activity with A-375 [22] stood at 21.6%; in the assay listed under Homo sapiens it was 20.3%; with A-375 [9], 37.3%; in [10], 45.3%; in [11], 15.8%; in [12] it was 58.7%. Besides, the Activity in the assay with A-375 [23] is recorded as 8.54%; with A-375 [24] it was 57.7%; with A-375 [25], 12.8%. Moreover, the outcome with HCT-116 was Active.
